These are literature values, as cited in patent US20120209535A1, “METHOD FOR GENERATING BIOMARKER REFERENCE PATTERNS” (BASF Plant Science Company GmbH, priority 2009, published 2012).

In data set [1] the test system is bladder. The settings on record: known effect.
Data set [2] deals with liver. The settings on record: known effect.
For data set [3] the following is noted: known effect.
Data set [4] deals with peroxisome proliferation.

Read-outs that look alike come from different tables or passages of the source.

In the case of `CC(=O)Nc1ccc2c(c1)Cc1ccccc1-2` [2-Acetylaminofluorene], the bladder carcinogen entry in data set [1] is “bladder carcinogen”. Further, in data set [2], the liver carcinogen entry is “liver carcinogen” and the liver enzyme inducer result is given as “potent liver enzyme inducer”. Also, the immunosuppressant entry in data set [3] is “immunosuppressant”.

In the case of `CC(=O)Nc1cccc2c1-c1ccccc1C2` [4-acetylaminofluorene], in data set [2], the “lipid accumulation in the liver” value was “lipid accumulation in the liver”, the liver carcinogen entry is given as “no liver carcinogen” and the liver enzyme inducer result is given as “weak liver enzyme inducer”. For the same compound, the immunosuppressant result in data set [3] was “immunosuppressant”.

For the compound `CCCCOC(=O)c1ccccc1C(=O)OCCCC` [dibutyl phthalate], the peroxisome proliferation effect result in data set [4] is on record as “have the abovementioned effect”.

On to `Cc1cc(Cl)ccc1O[C@@H](C)C(=O)O` [mecoprop-p], for which, in data set [4] (expert knowledge and/or literature information), the peroxisome proliferation effect result is on record as “have the abovementioned effect”.
